These compounds were tested against Beta-lactamase (Pseudomonas aeruginosa, UniProt Q79MP6) (assay: Competitive inhibition of Pseudomonas aeruginosa beta-lactamase IMP-1 assessed as formation of 4-nitrothiophenolate at pH 7 using CENTA as chromogenic substrate).
Beta-lactamase, sequence (Q79MP6 whole entry): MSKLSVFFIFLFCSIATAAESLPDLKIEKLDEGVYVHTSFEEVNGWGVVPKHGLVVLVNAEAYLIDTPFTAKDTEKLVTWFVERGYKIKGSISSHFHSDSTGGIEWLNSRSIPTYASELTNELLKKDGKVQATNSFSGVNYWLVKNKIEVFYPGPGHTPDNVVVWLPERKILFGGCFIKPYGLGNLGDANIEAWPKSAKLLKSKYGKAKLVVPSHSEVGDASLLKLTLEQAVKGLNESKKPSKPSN

Row | SMILES | Ki [µM]
1 | O=C(c1ccccc1)c1ccc(-c2nnc(S)[nH]2)cc1 | 75
2 | NC(S)=NNC(=O)c1ccccc1 | 19
3 | NC(=S)NNC(=O)c1ccc(C(=O)c2cccc([N+](=O)[O-])c2)cc1 | 16
4 | NC(=S)NNC(=O)c1ccc(C(=O)c2ccccc2Cl)cc1 | 14

Second part, the compound after the results:

Row | Ki [µM] | SMILES
5 | 41 | Cc1ccc(C(=O)c2ccc(C(=O)NNC(N)=S)cc2)cc1
6 | 13 | NC(=S)NNC(=O)c1ccc(C(=O)c2ccccc2)cc1
7 | 18 | NC(=S)NNC(=O)c1ccc(Cc2ccccc2)cc1
8 | 11 | NC(=S)NNC(=O)c1ccc(C(=O)c2ccc([N+](=O)[O-])cc2)cc1

From BindingDB's records for doi:10.1016/j.bmcl.2011.10.116 (The University of Queensland, 2012)
